Numbers after ± are expanded uncertainties.

This is an account of results in the NIST ThermoML archive (doi:10.1016/j.tca.2010.11.011).

The nature of series [1]: Molar enthalpy of transition or fusion. As to conditions: DSC.
The conditions of series [2]: DTA; for Normal melting temperature: Crystal; for Triple point temperature: Crystal 2.

Consider `O=C(O)CCCCC(=O)O` [1,6-hexanedioic acid], for which, in series [1] (Crystal), the “Molar enthalpy of transition or fusion” value turned out to be 9.08 ± 0.239 kcal/mol. In addition, in series [2], the Normal melting temperature came out at 153.00 ± 4 °C.

Consider `O=C(O)CCCCCCCCC(=O)O` [1,10-decanedioic acid], for which the “Molar enthalpy of transition or fusion” value in series [1] (Crystal) came to 11 ± 0.287 kcal/mol. In addition, the Normal melting temperature in series [2] was 132.00 ± 4 °C.

Consider `CC(CO)(CO)C(=O)O` [2,2-bis(hydroxymethyl)propanoic acid], for which the “Molar enthalpy of transition or fusion” value in series [1] (Crystal 2) turned out to be 9.26 ± 0.263 kcal/mol. The Triple point temperature in series [2] is on record as 458.15 ± 1 K.

Turning to `NC(CO)(CO)CO` [2-amino-2-(hydroxymethyl)-1,3-propanediol], the “Molar enthalpy of transition or fusion” value in series [1] (Crystal 2) came to 8.25 ± 0.232 kcal/mol. In series [2], the Triple point temperature was 405.15 ± 1 K.

On to `O=C(O)/C=C\C(=O)O` [cis-1,4-butenedioic acid], for which the “Molar enthalpy of transition or fusion” value in series [1] (Crystal) was 6.52 ± 0.194 kcal/mol. Moreover, the Normal melting temperature in series [2] came out at 135.00 ± 8 °C.

For `COC(=O)c1ccc(C(=O)OC)cc1` [dimethyl 1,4-benzenedicarboxylate], in series [1] (Crystal), the “Molar enthalpy of transition or fusion” value worked out at 7.89 ± 0.232 kcal/mol. Besides, in series [2], the Normal melting temperature is 142.00 ± 1 °C.

Turning to `O=C1OC(=O)c2ccccc21` [isobenzofuran-1,3-dione], the “Molar enthalpy of transition or fusion” value in series [1] (Crystal) is 5.63 ± 0.177 kcal/mol. Also, the Normal melting temperature in series [2] stood at 131.00 ± 1 °C.
